Experimental data from article PMC9862409 (Pharmaceutics, 2023).
≈ marks a conversion by molar mass, not a printed value.

How the values were obtained:
[1] = In vitro drug release, dialysis bag diffusion method; assay type: physicochemical; conditions: after 6 h; PBS pH 7.4, 37 °C
Procedure: The dissolution medium was phosphate buffer saline (PBS) (pH 7.4), which mimics physiological pH. […] Aliquots of 3 mL were taken from the dissolution medium at predefined time points at 0.5, 1, 2, 3, 4, 5, 6, 7, 8, 10, 12, 24, 36, and finally at 48 h. The sink conditions were maintained by immediately replenishing the equivalent volume of fresh PBS (pH 7.4) after each aliquot withdrawal. […] The study was performed in triplicate and was graphically presented as the cumulative percentage of drug release versus time. Data from the in vitro drug release study was further analyzed using different kinetic models to determine the drug release pattern.
Statistical analysis of in vitro drug release kinetic models was carried out using one-way analysis of variance (ANOVA) followed by Tukey’s Multiple Comparison post hoc test; p ≤ 0.05. […] Analyses were done using GraphPad Prism 6.01 (San Diego, CA, USA).

Staphylococcus aureus = test: MIC by broth microdilution method; assay type: cell-based; conditions: Staphylococcus aureus (ATCC® 25922)
Procedure: (§1) The MIC was determined by the broth microdilution method. […] Stock solutions were serially diluted (2-fold) in sterile Müeller Hinton broth (MHB) with a dilution range of 0.125 to 150 µg/mL. Overnight culture turbidity was adjusted equivalent to the 0.5 McFarland standard and then diluted to give a final concentration equivalent to 10^6 CFU/mL [30]. One hundred microliters of the adjusted bacterial culture were added to an equal volume of the tested dilutions in a 96-well microtiter plate. The plates were then incubated at 37 °C for 24 h.
(§2) The MIC was recorded as the lowest concentration of an antimicrobial agent, which gave no visible growth. […] The experiment was conducted in triplicate. The mean as well as standard deviation were recorded.

[2] = tested on: methicillin-resistant Staphylococcus aureus (MRSA); test: MIC by broth microdilution method; assay type: cell-based
Procedure: as §1, §2

human leukocyte elastase = biological target: T1, human leukocyte elastase (Homo sapiens, UniProt P08246); test: Anti-elastase assay; assay type: biochemical
T1 construct: purchased Nawah Scientific Inc., Cairo, Egypt
T1 sequence (P08246 30-267): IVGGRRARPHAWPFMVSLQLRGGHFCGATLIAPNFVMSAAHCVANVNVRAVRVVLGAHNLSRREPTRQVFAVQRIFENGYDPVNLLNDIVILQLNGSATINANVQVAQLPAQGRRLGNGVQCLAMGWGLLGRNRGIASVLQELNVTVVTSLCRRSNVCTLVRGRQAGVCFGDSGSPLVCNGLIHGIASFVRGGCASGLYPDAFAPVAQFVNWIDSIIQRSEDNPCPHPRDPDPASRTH
Procedure: The anti-elastase, anti-collagenase, and anti-tyrosinase activities were assessed following the method reported by Mostafa et al. [32]. […] For the anti-elastase assay, human leukocyte elastase (1 µg/mL) was incubated with N-2-hydroxyethylpiperazine-N-2-ethane sulfonic acid (HEPES) buffer (pH 7.5). Each of the tested samples or the standard inhibitor N-Methoxysuccinyl-Ala-Ala-Pro-chloromethyl ketone (1.4 mg/mL) was added into the 96-well plate for 20 min at 25 °C before the addition of 100 µL substrate of 1 mM N-Methoxysuccinyl-Ala-Ala-Pro-Val-p-nitroanilide. Afterward, the optical density was measured after 40 min of incubation at 405 nm against a blank well lacking the test sample/inhibitor. Various concentrations of the tested samples (25–300 µg/mL) were used.
Moreover, in vitro skin-related enzyme inhibitory assays were carried out in triplicates, and results were expressed as mean ± standard deviation. A non-linear regression curve was used to calculate IC50. An unpaired t-test was used for statistical comparison between the two groups. p < 0.05 is considered statistically significant. […]

[3] = biological target: collagenase type 1 from Clostridium histolyticum; test: Anti-collagenase assay; assay type: biochemical; conditions: +ve control = EDTA
Procedure: For the anti-collagenase, collagenase type 1 from Clostridium histolyticum (1 mg/mL) buffer (pH 7.4) along with tested samples or standard inhibitor ethylenediamine tetraacetic acid (EDTA) (1.4 mg/mL) were incubated at 37 °C for 20 min prior to the addition of 100 µL of the substrate 2-furanacryloyl-l-leucylglycyl-l-prolyl-l-alanine (FALGPA). The mixture was then incubated at 37 °C for an additional 1 h before the addition of 200 µL of 2% ninhydrin in 200 mM citrate buffer (pH 5) and placed in a water bath for 5 min. Afterward, the solution was left to cool down completely. Afterwards 200 µL of 50% isopropanol was added, and the optical densities were analyzed at 540 nm. Various concentrations of the tested samples (25–300 µg/mL) were used.

mushroom tyrosinase = test: Anti-tyrosinase assay; assay type: biochemical
Procedure: For the anti-tyrosinase assay, mushroom tyrosinase (5600 units/mL) was incubated at 37 °C for 15 min along with tested samples or standard inhibitor kojic acid (1.4 mg/mL) before the addition of the substrate 1 mM L-DOPA. Afterward, the optical density of the formed dopachrome was analyzed at 475 nm. Various concentrations of the tested samples (75–500 µg/mL) were used. All tests were conducted in triplicate. The enzyme inhibition activity was expressed in percentage using the following equation: (5) Enzyme inhibition activity %=Optical density of control – Optical density of sample/Optical density of control×100
Statistical analysis of in vitro drug release kinetic models was carried out using one-way analysis of variance (ANOVA) followed by Tukey’s Multiple Comparison post hoc test; p ≤ 0.05. Moreover, in vitro skin-related enzyme inhibitory assays were carried out in triplicates, and results were expressed as mean ± standard deviation. A non-linear regression curve was used to calculate IC50. An unpaired t-test was used for statistical comparison between the two groups. p < 0.05 is considered statistically significant. Analyses were done using GraphPad Prism 6.01 (San Diego, CA, USA).

RBCs = conditions: cited from earlier work
[4] = susceptible ≤4 µg/mL, resistant ≥8 µg/mL

CC(=O)NC[C@H]1CN(c2ccc(N3CCOCC3)c(F)c2)C(=O)O1 [LNZ, Linezolid]
percentage LNZ released [1]: ~98 ± 0.5% | MIC (Staphylococcus aureus; ATCC25922, 37 °C, 24 h, read-out: Minimum Inhibitory Concentration (MIC)): 4 µg/mL (≈ 11.9 µM) | Minimum Inhibitory Concentration (MIC) (Staphylococcus aureus; 37 °C, 24 h): 4 ± 0.00 µg/mL | susceptibility class (CLSI breakpoints) (Staphylococcus aureus; [4]): S (S: sensitive) | Minimum Inhibitory Concentration (MIC) ([2]; 37 °C, 24 h): 4 ± 0.00 µg/mL | MIC ([2]; Staphylococcus aureus, 37 °C, 24 h, read-out: Minimum Inhibitory Concentration (MIC)): 4 µg/mL (≈ 11.9 µM) | susceptibility class (CLSI breakpoints) [2, 4]: S (S: sensitive) | IC50 (human leukocyte elastase; +ve control = N-Methoxysuccinyl-Ala-Ala-Pro-chloromethyl ketone, read-out: Anti-Elastase IC50 (µg/mL) (converted)): 170 µM | Anti-Elastase % Inhibition (human leukocyte elastase; samples tested 25–300 µg/mL, concentration of this value not stated, +ve control = N-Methoxysuccinyl-Ala-Ala-Pro-chloromethyl ketone (1.4 mg/mL)): 88.00 ± 1.35% | Anti-Collagenase IC50 [3]: 335.34 ± 2.09 µg/mL | Anti-Tyrosinase IC50 (mushroom tyrosinase; +ve control = kojic acid): 363.50 ± 2.08 µg/mL | Anti-Tyrosinase % Inhibition (mushroom tyrosinase; samples tested 75–500 µg/mL, concentration of this value not stated, +ve control = kojic acid (1.4 mg/mL)): 65.00 ± 1.63% | hemolysis percentage (RBCs): 14%
